In US10071976B2, “Small molecule fatty acid synthase inhibitors” (Sanford Burnham Prebys Medical Discovery Institute, priority 2014, dated 2018):

target: FASN-TE (Homo sapiens, UniProt P49327); assay: In-vitro biochemical assay measuring FAS-TE inhibition (OMFH substrate, fluorescence)
Protocol: Min wells: Substrate+No enzyme+DMSO, Max wells: Substrate+Enzyme+DMSO, Sample wells: Substrate+Enzyme+Test compounds, Reference compound: Orlistat (make a fresh 10 mM stock in DMSO each time). 384-well black, low-volume plate (Greiner #784076)
Assay Protocol: • 1) ECHO transfer 160 nL of 125× Compound (or DMSO for control wells) per well. • 2) For Max and Sample wells: Add 10 μL of Enzyme (2×; 1.8 μM) prepared in RXN Buffer. For Min wells: Add 10 μL of RXN Buffer (No Enzyme). • 3) For all wells: Add 10 μL of Substrate (2×; 20 μM) prepared in diH2O+10% DMSO. • 4) Centrifuge plate for 1 minute at 1,000 rpm. • 5) Measure fluorescence every 5 minutes for 1-1.5 hours using the BMG POLARstar (ex 485 nm/em 520 nm; Gain=1015; 25 flashes). • 6) All volumes can be adjusted but the final DMSO concentration should be kept at about 6%.
Data Analysis: • 1) Calculate slopes and express as % Activity (Min wells=0%; Max wells=100%). • 2) Then, using Prism, calculate the IC50 values.

Chain of FASN-TE (P49327 2207-2511 limits assumed): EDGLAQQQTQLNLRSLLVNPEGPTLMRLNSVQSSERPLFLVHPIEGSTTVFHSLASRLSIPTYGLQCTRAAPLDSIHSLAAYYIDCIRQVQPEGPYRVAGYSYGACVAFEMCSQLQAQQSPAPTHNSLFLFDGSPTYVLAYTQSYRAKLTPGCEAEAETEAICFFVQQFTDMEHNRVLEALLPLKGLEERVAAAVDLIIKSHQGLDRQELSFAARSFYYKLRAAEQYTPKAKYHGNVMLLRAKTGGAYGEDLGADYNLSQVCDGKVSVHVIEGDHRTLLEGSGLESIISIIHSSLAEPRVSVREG

Compound	IC50
CCC(=O)Nc1nc(-c2ccc(S(=O)(=O)N3CCC(C)CC3)cc2)cs1 [Compound 23]	> 80000 nM
CC(C)CC(=O)Nc1nc(-c2ccc(S(=O)(=O)N3CCOCC3)cc2)cs1 [Compound 7]	11600 nM
O=C(Nc1nc(-c2ccc(S(=O)(=O)N3CCOCC3)cc2)cs1)C1CCCC1 [Compound 19]	> 80000 nM
CC(C)(C)OC(=O)Nc1nc(-c2ccc(S(=O)(=O)N3CCOCC3)cc2)cs1 [Compound 21]	29000 nM
CC1CCN(S(=O)(=O)c2ccc(-c3csc(NC(=O)C4CC4)n3)cc2)CC1 [Compound 25]	> 80000 nM
O=C(Nc1nc(-c2ccc(S(=O)(=O)N3CCCC3)cc2)cs1)c1ccco1 [Compound 4]	4680 nM
O=C(Nc1nc(-c2ccc(S(=O)(=O)N3CCOCC3)cc2)cs1)C1CCCCC1 [Compound 20]	> 80000 nM
CCC(=O)Nc1nc(-c2ccc(S(=O)(=O)N(CC)CC)cc2)cs1 [Compound 31]	4250 nM
CC(=O)Nc1nc(-c2ccc(S(=O)(=O)N3CCSCC3)cc2)cs1 [Compound 13]	> 80000 nM
CCN(CC)S(=O)(=O)c1ccc(-c2csc(-c3ccc(Br)cc3)n2)cc1 [Compound 105]	≥ 80000 nM
O=S(=O)(c1ccc(-c2csc(-c3cccnc3)n2)cc1)N1CCCCC1 [Compound 64]	2680 nM
O=C(COc1cccc(Cl)c1)Nc1nc(-c2ccc(S(=O)(=O)N3CCOCC3)cc2)cs1 [Compound 2]	4500 nM
CCN(CC)S(=O)(=O)c1ccc(-c2csc(C(C)(C)C)n2)cc1 [Compound 102]	12600 nM
O=S(=O)(c1ccc(-c2csc(Nc3ccc(F)cc3)n2)cc1)N1CCCC1 [Compound 80]	14800 nM
CCN(CC)S(=O)(=O)c1ccc(-c2csc(NC(=O)C3CCCCC3)n2)cc1 [Compound 38]	2900 nM
CCN(CC)S(=O)(=O)c1ccc(-c2csc(Cc3cccc(F)c3)n2)cc1 [Compound 110]	3150 nM
CCN(CC)S(=O)(=O)c1ccc(-c2csc(Cc3ccc(F)cc3)n2)cc1 [Compound 111]	2410 nM
CCN(CC)S(=O)(=O)c1ccc(-c2csc(-c3ccc(Cl)cc3)n2)cc1 [Compound 104]	≥ 80000 nM

Compound	IC50
CCC(=O)Nc1nc(-c2ccc(S(=O)(=O)N3CCOCC3)cc2)cs1 [Compound 14]	4500 nM
CCN(CC)S(=O)(=O)c1ccc(-c2csc(NC(=O)C3CC3)n2)cc1 [Compound 34]	2300 nM
O=C(Nc1nc(-c2ccc(S(=O)(=O)N3CCOCC3)cc2)cs1)C1CCC1 [Compound 18]	3600 nM
CCN(CC)S(=O)(=O)c1ccc(-c2csc(NC(=O)CC(C)C)n2)cc1 [Compound 99]	19000 nM
O=S(=O)(c1ccc(-c2csc(-c3cccnc3)n2)cc1)N1CCOCC1 [Compound 81]	2140 nM
CN(C)S(=O)(=O)c1ccc(-c2csc(-c3cccnc3)n2)cc1 [Compound 83]	5210 nM
CCCCCCC(=O)Nc1nc(-c2ccc(S(=O)(=O)N3CCC(C)CC3)cc2)cs1 [Compound 58]	4500 nM
CCc1nc(-c2ccc(S(=O)(=O)N(CC)CC)cc2)cs1 [Compound 100]	≥ 80000 nM
O=C(Nc1nc(-c2ccc(S(=O)(=O)N3CCOCC3)cc2)cs1)c1ccco1 [Compound 11]	37400 nM
CCN(CC)S(=O)(=O)c1ccc(-c2csc(-c3ccc(Br)cc3C)n2)cc1 [Compound 106]	≥ 80000 nM
O=C(Nc1nc(-c2ccc(S(=O)(=O)N3CCOCC3)cc2)cs1)C1CC1 [Compound 17]	5200 nM
O=C(Nc1nc(-c2ccc(S(=O)(=O)N3CCOCC3)cc2)cs1)c1cccs1 [Compound 10]	32900 nM
CC(=O)Nc1nc(-c2ccc(S(=O)(=O)N3CCOCC3)cc2)cs1 [Compound 9]	13400 nM
CC(C)CC(=O)Nc1nc(-c2ccc(S(=O)(=O)N3CCC(C)CC3)cc2)cs1 [Compound 59]	60400 nM
CCN(CC)S(=O)(=O)c1ccc(-c2csc(C(C)C)n2)cc1 [Compound 101]	11400 nM
CCN(CC)S(=O)(=O)c1ccc(-c2csc(Cc3ccccc3OC)n2)cc1 [Compound 113]	6920 nM
CCN(CC)S(=O)(=O)c1ccc(-c2csc(-c3cccc(Br)c3)n2)cc1 [Compound 107]	≥ 80000 nM

These reach a lower IC50. Values come first.

IC50	Compound
1800 nM	CCC(CC)C(=O)Nc1nc(-c2ccc(S(=O)(=O)N3CCC(C)CC3)cc2)cs1 [Compound 61]
1720 nM	CCN(CC)S(=O)(=O)c1ccc(-c2csc(Cc3ccccc3F)n2)cc1 [Compound 109]
1600 nM	CN(C)S(=O)(=O)c1ccc(-c2csc(NC(=O)C3CCCC3)n2)cc1 [Compound 43]
1510 nM	O=S(=O)(c1ccc(-c2csc(-c3cccnc3)n2)cc1)N1CCCC1 [Compound 69]
1400 nM	CN(C)S(=O)(=O)c1ccc(-c2csc(NC(=O)C3CCC3)n2)cc1 [Compound 42]
1400 nM	CCCCCCC(=O)Nc1nc(-c2ccc(S(=O)(=O)N(CC)CC)cc2)cs1 [Compound 54]
1310 nM	O=C(Nc1nc(-c2ccc(S(=O)(=O)N3CCCC3)cc2)cs1)C1COc2ccccc2O1 (stereo not drawn) [Compound 63]
1200 nM	CCN(CC)S(=O)(=O)c1ccc(-c2csc(NC(=O)C3CCCC3)n2)cc1 [Compound 36]
1110 nM	CCN(CC)S(=O)(=O)c1ccc(-c2csc(-c3ccc(F)cc3)n2)cc1 [Compound 103]
1100 nM	CCC(=O)Nc1nc(-c2ccc(S(=O)(=O)N(C)C)cc2)cs1 [Compound 40]
820 nM	CC(C)C(=O)Nc1nc(-c2ccc(S(=O)(=O)N3CCOCC3)cc2)cs1 [Compound 6]
750 nM	CCCCCC(=O)Nc1nc(-c2ccc(S(=O)(=O)N3CCC(C)CC3)cc2)cs1 [Compound 57]
730 nM	O=C(Nc1nc(-c2ccc(S(=O)(=O)N3CCCC3)cc2)cs1)C1CCCC1 [Compound 30]
660 nM	O=S(=O)(c1ccc(-c2csc(Cc3ccccc3)n2)cc1)N1CCOCC1 [Compound 96]
580 nM	CC(C)C(=O)Nc1nc(-c2ccc(S(=O)(=O)N(C)C)cc2)cs1 [Compound 39]
560 nM	O=C(Nc1nc(-c2ccc(S(=O)(=O)N3CCCC3)cc2)cs1)C1CC1 [Compound 28]
410 nM	CCC(C)C(=O)Nc1nc(-c2ccc(S(=O)(=O)N3CCC(C)CC3)cc2)cs1 (stereo not drawn) [Compound 60]
400 nM	O=C(Nc1nc(-c2ccc(S(=O)(=O)N3CCCC3)cc2)cs1)C1CCC1 [Compound 29]
380 nM	CCCCC(=O)Nc1nc(-c2ccc(S(=O)(=O)N3CCCCC3C)cc2)cs1 (stereo not drawn) [Compound 45]
330 nM	CCC(CC)C(=O)Nc1nc(-c2ccc(S(=O)(=O)N(CC)CC)cc2)cs1 [Compound 55]
310 nM	CCC(C)C(=O)Nc1nc(-c2ccc(S(=O)(=O)N3CCOCC3)cc2)cs1 (stereo not drawn) [Compound 15]
290 nM	CCC(C)C(=O)Nc1nc(-c2ccc(S(=O)(=O)N3CCCCC3C)cc2)cs1 (stereo not drawn) [Compound 44]
280 nM	CCN(CC)S(=O)(=O)c1ccc(-c2csc(NC(=O)C(C)C)n2)cc1 [Compound 33]
277 nM	CC(C)C(=O)Nc1nc(-c2ccc(S(=O)(=O)N3CCCC3)cc2)cs1 [Compound 27]
200 nM	CCCCCC(=O)Nc1nc(-c2ccc(S(=O)(=O)N(CC)CC)cc2)cs1 [Compound 53]
172 nM	CCCCC(=O)Nc1nc(-c2ccc(S(=O)(=O)N(CC)CC)cc2)cs1 [Compound 32]
150 nM	CCC(C)C(=O)Nc1nc(-c2ccc(S(=O)(=O)N3CCCC3)cc2)cs1 (stereo not drawn) [Compound 48]
140 nM	CCCCCC(=O)Nc1nc(-c2ccc(S(=O)(=O)N3CCCC3)cc2)cs1 [Compound 50]
